Test results as given in patent US20250034147A1, “MDM2 DEGRADERS AND USES THEREOF” (Kymera Therapeutics, Inc., priority 2021, published 2025).

How the values were obtained:
HiBiT-tagged MDM2 = biological target: T1, HiBiT-tagged MDM2 (Homo sapiens, UniProt Q00987); assay: MDM2 HiBit HEK293T degradation; format: cell-based; details: HEK293T cells stably expressing C-terminally HiBiT-tagged MDM2; 4 h; read-out: MDM2 HiBit HEK293T degradation 4 h: Average external-Abs DC50
T1 construct: expressed in transfected cells
T1 sequence (Q00987 whole entry): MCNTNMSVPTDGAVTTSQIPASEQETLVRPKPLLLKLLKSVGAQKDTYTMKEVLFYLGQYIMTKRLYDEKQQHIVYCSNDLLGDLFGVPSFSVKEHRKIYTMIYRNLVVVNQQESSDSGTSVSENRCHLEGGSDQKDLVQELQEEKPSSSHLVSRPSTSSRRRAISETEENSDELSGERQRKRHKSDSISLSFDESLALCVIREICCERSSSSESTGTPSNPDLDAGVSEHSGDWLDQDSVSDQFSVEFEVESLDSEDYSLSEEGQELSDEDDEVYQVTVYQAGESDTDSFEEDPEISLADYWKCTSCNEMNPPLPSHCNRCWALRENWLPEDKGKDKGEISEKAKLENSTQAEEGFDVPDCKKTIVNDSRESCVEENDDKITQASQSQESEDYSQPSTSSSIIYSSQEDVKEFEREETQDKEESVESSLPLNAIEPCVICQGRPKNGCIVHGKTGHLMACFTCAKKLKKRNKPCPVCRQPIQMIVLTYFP
Method in brief: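 Degradation was measured in HEK293T cells stably expressing C-terminally HiBiT-tagged MDM2, a pool selected with 1 microgram/ml puromycin. A MDM2 tool degrader and HaloPROTAC3 served as positive controls. Potency is reported as DC50 in letter bins.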

RS411 cells = assay: Cell Viability CTG Assay; format: cell-based; details: Homo sapiens, RS4-11, CellTiter Glo (CTG) cell viability, read-out: Average external-IC50
Method in brief: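 RS411 cells (1000/well) exposed 1 day at 37 °C to compound, 11-point 3-fold dilution from 10 μM top, 0.2% DMSO final. Viability read by CellTiter-Glo luminescence; IC50 reported as letter bins.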

Compound	DC50 (HiBiT-tagged MDM2)	IC50 (RS411 cells)
O=C1CCC(n2c(=O)n(CP(=O)(O)O)c3cc(C4CCN(C(=O)[C@H]5CC[C@H](NC(=O)[C@@H]6NC7(CCCCC7)[C@@]7(C(=O)Nc8cc(Cl)ccc87)[C@H]6c6cccc(Cl)c6F)CC5)CC4)ccc32)C(=O)N1 (some centres unmarked) [I-35]	100 to 1000 nM	50 to 500 nM
CN1[C@@H](C(=O)Nc2ccc(CN3CCC(c4ccc5c(c4)n(C)c(=O)n5C4CCC(=O)NC4=O)CC3)cc2)[C@H](c2cccc(Cl)c2F)[C@]2(C(=O)Nc3cc(Cl)ccc32)C12CCCCC2 (some centres unmarked) [I-28]	< 10 nM	< 5 nM
CN1CCN(C[C@H]2CC[C@H](NC(=O)[C@@H]3NC4(CCCCC4)[C@@]4(C(=O)Nc5cc(Cl)ccc54)[C@H]3c3cccc(Cl)c3F)CC2)C[C@@H]1CCc1ccc2c(c1)n(C)c(=O)n2C1CCC(=O)NC1=O (some centres unmarked) [I-13]	< 10 nM	< 5 nM
CC(C)[C@@H](CS(=O)(=O)C(C)C)N1C(=O)[C@@](C)(CC(=O)Nc2ccc(C(=O)N3CCN(CCCc4ccc5c(c4)n(C)c(=O)n5C4CCC(=O)NC4=O)CC3)cc2)C[C@H](c2cccc(Cl)c2)[C@H]1c1ccc(Cl)cc1 (some centres unmarked) [I-9]	10 to 100 nM	5 to 50 nM
Cn1c(=O)n(C2CCC(=O)NC2=O)c2ccc(N3CCN(CC4CCN(C(=O)[C@H]5CC[C@H](NC(=O)[C@@H]6NC7(CCCCC7)[C@@]7(C(=O)Nc8cc(Cl)ccc87)[C@H]6c6cccc(Cl)c6F)CC5)CC4)CC3)cc21 (some centres unmarked) [I-15]	< 10 nM	< 5 nM
Cn1c(=O)n(C2CCC(=O)NC2=O)c2ccc(CC[C@@H]3CN(C[C@H]4CC[C@H](NC(=O)[C@@H]5NC6(CCCCC6)[C@@]6(C(=O)Nc7cc(Cl)ccc76)[C@H]5c5cccc(Cl)c5F)CC4)CCO3)cc21 (some centres unmarked) [I-21]	< 10 nM	< 5 nM
CC1(C)CCC2(CC1)NC(C(=O)NC1CCC(CN3CCN(CC#Cc4ccn5c(N6CCC(=O)NC6=O)cnc5c4)CC3)CC1)[C@H](c1ccnc(Cl)c1F)[C@]21C(=O)Nc2cc(Cl)ccc21 (some centres unmarked) [I-50]	< 10 nM	5 to 50 nM
COc1cc2c(cc1OC(C)C)[C@H](c1ccc(Cl)cc1)N(c1ccc(N(C)C[C@H]3CC[C@H](N(CCC(=O)O)C(=O)CCCCc4ccc5c(c4)n(C)c(=O)n5C4CCC(=O)NC4=O)CC3)cc1)C(=O)C2 (some centres unmarked) [I-12]	100 to 1000 nM	> 500 nM
O=C(N[C@H]1CC[C@H](CN2CCC(CCCCCC3CCN(C[C@H]4CC[C@H](NC(=O)[C@@H]5NC6(CCCCC6)[C@@]6(C(=O)Nc7cc(Cl)ccc76)[C@H]5c5cccc(Cl)c5F)CC4)CC3)CC2)CC1)[C@@H]1NC2(CCCCC2)[C@@]2(C(=O)Nc3cc(Cl)ccc32)[C@H]1c1cccc(Cl)c1F [I-87]	> 1000 nM	> 500 nM
Cn1c(=O)n(C2CCC(=O)NC2=O)c2ccc(N3CCN(CC4CCN(C[C@H]5CC[C@H](NC(=O)[C@@H]6NC7(CCCCC7)[C@@]7(C(=O)Nc8cc(Cl)ccc87)[C@H]6c6cccc(Cl)c6F)CC5)CC4)CC3)cc21 (some centres unmarked) [I-70]	< 10 nM	< 5 nM
Cn1c(=O)n(C2CCC(=O)NC2=O)c2ccc(N3CC(N4CCN(C(=O)[C@H]5CC[C@H](NC(=O)[C@@H]6NC7(CCCCC7)[C@@]7(C(=O)Nc8cc(Cl)ccc87)[C@H]6c6cccc(Cl)c6F)CC5)CC4)C3)cc21 (some centres unmarked) [I-19]	< 10 nM	5 to 50 nM
Cn1c(=O)n(C2CCC(=O)NC2=O)c2ccc(CN3CCC(OC4CN(C(=O)[C@H]5CC[C@H](NC(=O)[C@@H]6NC7(CCCCC7)[C@@]7(C(=O)Nc8cc(Cl)ccc87)[C@H]6c6cccc(Cl)c6F)CC5)C4)CC3)cc21 (some centres unmarked) [I-23]	< 10 nM	< 5 nM
O=C1CCN(c2cnc3c(C4CCN(C(=O)[C@H]5CC[C@H](NC(=O)[C@@H]6NC7(CCCCC7)[C@@]7(C(=O)Nc8cc(Cl)ccc87)[C@H]6c6cccc(Cl)c6F)CC5)CC4)cccn23)C(=O)N1 [I-45]	< 10 nM	5 to 50 nM

The next lines start with the values.

DC50 (HiBiT-tagged MDM2)	IC50 (RS411 cells)	Compound
< 10 nM	5 to 50 nM	Cn1c(=O)n(C2CCC(=O)NC2=O)c2ccc(CCCC3(C(=O)O)CCN(C[C@H]4CC[C@H](NC(=O)[C@@H]5NC6(CCCCC6)[C@@]6(C(=O)Nc7cc(Cl)ccc76)[C@H]5c5cccc(Cl)c5F)CC4)CC3)cc21 (some centres unmarked) [I-38]
100 to 1000 nM	> 500 nM	COc1cc2c(cc1OC(C)C)[C@H](c1ccc(Cl)cc1)N(c1ccc(N(C)C[C@H]3CC[C@H](N(CC(=O)O)C(=O)CCCCc4ccc5c(c4)n(C)c(=O)n5C4CCC(=O)NC4=O)CC3)cc1)C(=O)C2 (some centres unmarked) [I-93]
10 to 100 nM	50 to 500 nM	O=C1CCC(n2c(=O)n(CCP(=O)(O)O)c3cc(C4CCN(C(=O)[C@H]5CC[C@H](NC(=O)[C@@H]6NC7(CCCCC7)[C@@]7(C(=O)Nc8cc(Cl)ccc87)[C@H]6c6cccc(Cl)c6F)CC5)CC4)ccc32)C(=O)N1 (some centres unmarked) [I-40]
< 10 nM	5 to 50 nM	Cn1c(=O)n(C2CCC(=O)NC2=O)c2ccc(C#CC3CCN(C[C@H]4CC[C@H](NC(=O)[C@@H]5NC6(CCCCC6)[C@@]6(C(=O)Nc7cc(Cl)ccc76)[C@H]5c5cccc(Cl)c5F)CC4)C(=O)C3)cc21 (some centres unmarked) [I-46]
< 10 nM	5 to 50 nM	CN1[C@@H](C(=O)N[C@H]2CC[C@H](CN3CC4(CCN(CCc5ccc6c(c5)n(C)c(=O)n6C5CCC(=O)NC5=O)CC4)C3)CC2)[C@H](c2cccc(Cl)c2F)[C@]2(C(=O)Nc3cc(Cl)ccc32)C12CCCCC2 (some centres unmarked) [I-75]
100 to 1000 nM	> 500 nM	CCOc1ccc2c(c1)NC(=O)[C@]21[C@@H](c2cccc(Cl)c2F)[C@H](C(=O)N[C@H]2CC[C@H](CN3CCC(c4ccc5c(c4)n(C)c(=O)n5C4CCC(=O)NC4=O)CC3)CC2)NC12CCCCC2 (some centres unmarked) [I-95]
< 10 nM	< 5 nM	Cn1c(=O)n([C@@H]2CCC(=O)NC2=O)c2ccc(C3CCN(C(=O)[C@H]4CC[C@H](NC(=O)[C@@H]5NC6(CCCCC6)[C@@]6(C(=O)Nc7cc(Cl)ccc76)[C@H]5c5cccc(Cl)c5F)CC4)CC3)cc21 (single isomer, unassigned) [I-104]
< 10 nM	< 5 nM	Cn1c(=O)n(C2CCC(=O)NC2=O)c2ccc(CC[C@H]3CN(C[C@H]4CC[C@H](NC(=O)[C@@H]5NC6(CCCCC6)[C@@]6(C(=O)Nc7cc(Cl)ccc76)[C@H]5c5cccc(Cl)c5F)CC4)CCO3)cc21 (some centres unmarked) [I-11]
10 to 100 nM	5 to 50 nM	O=C(O)CCn1c(=O)n(C2CCC(=O)NC2=O)c2ccc(C3CCN(C(=O)[C@H]4CC[C@H](NC(=O)[C@@H]5NC6(CCCCC6)[C@@]6(C(=O)Nc7cc(Cl)ccc76)[C@H]5c5cccc(Cl)c5F)CC4)CC3)cc21 (some centres unmarked) [I-82]
< 10 nM	< 5 nM	Cn1c(=O)n(C2CCC(=O)NC2=O)c2ccc(C3CCN(C[C@@H]4CC[C@@H](NC(=O)[C@@H]5NC6(CCC(C)(C)CC6)[C@@]6(C(=O)Nc7cc(Cl)ccc76)[C@H]5c5ccnc(Cl)c5F)CO4)CC3)cc21 (some centres unmarked) [I-76]
< 10 nM	< 5 nM	Cn1c(=O)n(C2CCC(=O)NC2=O)c2ccc(C3=CCN(C[C@H]4CC[C@H](NC(=O)[C@@H]5NC6(CCCCC6)[C@@]6(C(=O)Nc7cc(Cl)ccc76)[C@H]5c5cccc(Cl)c5F)CC4)CC3)cc21 (some centres unmarked) [I-5]
< 10 nM	< 5 nM	Cn1c(=O)n(C2CCC(=O)NC2=O)c2ccc(N3CC4(CCN(C[C@H]5CC[C@H](NC(=O)[C@@H]6NC7(CCCCC7)[C@@]7(C(=O)Nc8cc(Cl)ccc87)[C@H]6c6cccc(Cl)c6F)CC5)CC4)C3)cc21 (some centres unmarked) [I-16]
10 to 100 nM	> 500 nM	Cn1c(=O)n(C2CCC(=O)NC2=O)c2ccc(C3CCN(C[C@H]4CC[C@H](NC(=O)[C@@H]5NC6(CCCCC6)[C@@]6(C(=O)Nc7cc(Cl)ccc76)[C@H]5c5cccc(Cl)c5F)CC4)C[C@H]3F)cc21 (some centres unmarked) [I-83]
< 10 nM	< 5 nM	CN1[C@@H](C(=O)N[C@H]2CC[C@H](CN3CCC(c4ccc5c(c4)n(C)c(=O)n5C4CCC(=O)NC4=O)CC3)CC2)[C@H](c2cccc(Cl)c2F)[C@]2(C(=O)Nc3cc(Cl)ccc32)C12CCCCC2 (some centres unmarked) [I-17]
> 1000 nM	> 500 nM	COc1cc2c(cc1OC(C)C)[C@H](c1ccc(Cl)cc1)N(c1ccc(N(C)CC(=O)N3CCN(CCCCCCc4ccc5c(c4)n(C)c(=O)n5C4CCC(=O)NC4=O)CC3)cc1)C(=O)C2 (some centres unmarked) [I-48]
